According to patent publication US20130053382A1, “Inhibitors of Phosphoinositide Dependent Kinase 1 (PDK1)” (priority 2010, published 2013):
Where a name gives a salt, the structure may show the parent alone.

target: T1, recombinant human PDK1 (Homo sapiens, UniProt O15530); assay: PDK1 IMAP fluorescence polarization kinase assay; format: biochemical; details: 10 nM PDK1, 100 nM peptide substrate, 100 nM PIFtide, 2.5 uM ATP, 1.5 hours
T1 construct: containing amino acids 51-556 of the human PDK1 enzyme; made in house; host or cells: Sf9 insect cells
T1 sequence (O15530 51-556): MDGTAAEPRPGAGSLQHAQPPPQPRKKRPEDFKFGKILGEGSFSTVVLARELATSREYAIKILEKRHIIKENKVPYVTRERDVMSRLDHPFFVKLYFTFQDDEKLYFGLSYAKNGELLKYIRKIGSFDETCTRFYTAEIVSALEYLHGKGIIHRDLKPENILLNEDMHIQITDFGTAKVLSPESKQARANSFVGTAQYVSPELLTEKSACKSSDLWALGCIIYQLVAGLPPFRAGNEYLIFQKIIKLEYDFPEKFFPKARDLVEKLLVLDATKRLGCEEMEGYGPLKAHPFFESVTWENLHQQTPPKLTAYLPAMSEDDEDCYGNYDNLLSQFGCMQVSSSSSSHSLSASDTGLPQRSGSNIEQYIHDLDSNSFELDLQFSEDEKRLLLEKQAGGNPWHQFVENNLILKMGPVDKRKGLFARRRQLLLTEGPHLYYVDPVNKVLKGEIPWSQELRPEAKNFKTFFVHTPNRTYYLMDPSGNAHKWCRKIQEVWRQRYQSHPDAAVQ

| IC50 | Structure (SMILES) |
| --- | --- |
| 1860 nM | NC1(c2ccc(-c3cc4cn[nH]c4cc3NC(=O)c3csc(-c4cc(C(F)(F)F)n[nH]4)n3)cc2)CC1 [Compound 1-18, N-(5-(4-(1-aminocyclopropyl)phenyl)-1H-indazol-6-yl)-2-(3-(trifluoromethyl)-1H-pyrazol-5-yl)thiazole-4-carboxamide] |
| 108 nM | Cc1cc(CN)ccc1-c1cc2cn[nH]c2cc1NC(=O)c1csc(-c2cc(C(F)(F)F)n[nH]2)n1 [Compound 4-6, N-(5-(4-(aminomethyl)-2-methylphenyl)-1H-indazol-6-yl)-2-(3-(trifluoromethyl)-1H-pyrazol-5-yl)thiazole-4-carboxamide] |
| 85 nM | Cc1cc(-c2nc(C(=O)Nc3cc4[nH]ncc4cc3-c3ccc4c(c3)CNC4)cs2)[nH]n1 [Compound 5-7, N-(5-(isoindolin-5-yl)-1H-indazol-6-yl)-2-(3-methyl-1H-pyrazol-5-yl)thiazole-4-carboxamide] |

The next lines start with the molecule.

| Structure (SMILES) | IC50 |
| --- | --- |
| O=C(Nc1cc2[nH]ncc2cc1-c1cccc(CN2CCCC2)c1)c1csc(-c2cc(C(F)(F)F)n[nH]2)n1 [Compound 1-11, N-(5-(3-(pyrrolidin-1-ylmethyl)phenyl)-1H-indazol-6-yl)-2-(3-(trifluoromethyl)-1H-pyrazol-5-yl)thiazole-4-carboxamide] | 33 nM |
| O=C(Nc1cc2[nH]ncc2cc1-c1cccc(CN2CCCCC2)c1)c1csc(-c2cc(C(F)(F)F)n[nH]2)n1 [Compound 3-5, N-(5-(3-(piperidin-1-ylmethyl)phenyl)-1H-indazol-6-yl)-2-(3-(trifluoromethyl)-1H-pyrazol-5-yl)thiazole-4-carboxamide hydrochloride] | 170 nM |
